Drawing on PubChem BioAssay AID330 (DTP/NCI, 2004), this text covers T/C for 22 molecules.

“And” between values parts separate entries of the source, which are not always exact repeats. Identical values can stand only once. Toxic doses and inconclusive results are not listed. Square brackets hold non-standard residues; d marks the D form. Peptide text beside a SMILES is read from it. * marks the point of attachment. ξ: configuration not given here. ξPhe(4-N(CH2CH2Cl)2) = NC(Cc1ccc(N(CCCl)CCCl)cc1)C(=O)O; Aad = N[CH](CCCC(=O)O)C(=O)O; Nphe = O=C(O)CNCc1ccccc1; ξL = CC(C)CC(N)C(=O)O; Ms = CS(=O)(=O)*

The assay concerns P388 leukemia ip, CD2F1 mice, survival T/C. Description: NCI In Vivo Anticancer Drug Screen. Data for tumor model P388 Leukemia (intraperitoneal) in CD2F1 (CDF1) mice. The note with it: endpoint: median survival time, higher = longer survival. The gist of the method: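 Mice carrying the transplanted tumor received test compound or vehicle. Survival was recorded in each group, and the value is the treated-group measurement divided by that of the vehicle-treated control group.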

Setting [1] is: dose: 50.0 mg/kg/injection, schedule: Q01DX009 (ip), vehicle: saline.
Where [2] appears, read: dose: 100.0 mg/kg/injection, schedule: Q01DX009 (ip), vehicle: saline.
The mark [3] stands for this setting: dose: 200.0 mg/kg/injection, schedule: Q01DX009 (ip), vehicle: saline.
[4] abbreviates: dose: 50.0 mg/kg/injection, schedule: Q01DX009 (ip), vehicle: Klucel (hydroxypropylcellulose) (HPC).
Where [5] appears, read: dose: 100.0 mg/kg/injection, schedule: Q01DX009 (ip), vehicle: Klucel (hydroxypropylcellulose) (HPC).
The mark [6] stands for this setting: dose: 100.0 mg/kg/injection, schedule: Q04DX003 (ip), vehicle: Klucel (hydroxypropylcellulose) (HPC).
Where [7] appears, read: dose: 200.0 mg/kg/injection, schedule: Q04DX003 (ip), vehicle: Klucel (hydroxypropylcellulose) (HPC).
Where [8] appears, read: dose: 400.0 mg/kg/injection, schedule: Q04DX003 (ip), vehicle: Klucel (hydroxypropylcellulose) (HPC).
Where [9] appears, read: dose: 12.5 mg/kg/injection, schedule: Q01DX009 (ip), vehicle: saline.
Setting [10] is: dose: 60.0 mg/kg/injection, schedule: Q01DX005 (ip), vehicle: saline with Tween-80.
Where [11] appears, read: dose: 120.0 mg/kg/injection, schedule: Q01DX005 (ip), vehicle: saline with Tween-80.
Where [12] appears, read: dose: 50.0 mg/kg/injection, schedule: Q01DX005 (ip), vehicle: saline with Tween-80.
[13] abbreviates: dose: 25.0 mg/kg/injection, schedule: Q01DX009 (ip), vehicle: saline.
Where [14] appears, read: dose: 50.0 mg/kg/injection, schedule: Q01DX005 (ip), vehicle: Klucel (hydroxypropylcellulose) (HPC).
The mark [15] stands for this setting: dose: 100.0 mg/kg/injection, schedule: Q01DX005 (ip), vehicle: Klucel (hydroxypropylcellulose) (HPC).
The mark [16] stands for this setting: dose: 200.0 mg/kg/injection, schedule: Q01DX005 (ip), vehicle: Klucel (hydroxypropylcellulose) (HPC).

`CC(C)CC(NC(=O)CN(Cc1ccccc1)S(C)(=O)=O)C(=O)O` (stereo not drawn) (Ms-[Nphe]-[ξL]-OH): the T/C is, setting by setting: (dose: 12.5 mg/kg/injection, schedule: Q01DX009 (ip), vehicle: other) 100 % of control; (dose: 25.0 mg/kg/injection, schedule: Q01DX009 (ip), vehicle: other) 104 % of control; (dose: 50.0 mg/kg/injection, schedule: Q01DX009 (ip), vehicle: other) 114 % of control; (dose: 100.0 mg/kg/injection, schedule: Q01DX009 (ip), vehicle: other) 104 % of control; (dose: 200.0 mg/kg/injection, schedule: Q01DX009 (ip), vehicle: other) 100 % of control.

On to `O=C(O)C(O)C(O)C(O)C(=O)O` (stereo not drawn), for which the T/C under setting [1] is 101 % of control, the T/C under setting [2] is 107 % of control and the T/C under setting [3] was 91 % of control.

Regarding `CCOC(=O)C(Cc1ccc(N(CCCl)CCCl)cc1)NC(=O)C(CCC(=O)O)NC(=O)C(Cc1ccc(O)cc1)NC(=O)C(CCCC(=O)O)NC(=O)C(N)Cc1ccc(O)cc1` (stereo not drawn) (H-Y[Aad]YE[ξPhe(4-N(CH2CH2Cl)2)]-OEt; configuration not given here), the T/C is 162 % of control (dose: 25.0 mg/kg/injection, schedule: Q01DX009 (ip), vehicle: Klucel (hydroxypropylcellulose) (HPC)); 173 % of control and 186 % of control under setting [4]; 189 % of control and 230 % of control under setting [5]; 218 % of control and 220 % of control (dose: 200.0 mg/kg/injection, schedule: Q01DX009 (ip), vehicle: Klucel (hydroxypropylcellulose) (HPC)).

As for `Nc1nnnn1NC(=O)c1ccccc1`, the T/C under setting [6] was 97 % of control, the T/C under setting [7] was 102 % of control and the T/C under setting [8] was 98 % of control.

As for `CC1(C)N=C(N)N=C(N)N1c1ccc(Cl)c(C(F)(F)F)c1`, the T/C (dose: 3.12 mg/kg/injection, schedule: Q01DX009 (ip), vehicle: saline) is 108 % of control; the T/C under setting [9] was 124 % of control; the T/C (dose: 12.5 mg/kg/injection, schedule: Q01DX009 (ip), vehicle: suspension in saline) was 155 % of control; the T/C (dose: 25.0 mg/kg/injection, schedule: Q01DX009 (ip), vehicle: suspension in saline) was 172 % of control.

Take `O=[N+]([O-])/C=C/c1ccccc1Cl`: the T/C (dose: 10.0 mg/kg/injection, schedule: Q01DX009 (ip), vehicle: other) is 115 % of control and the T/C (dose: 30.0 mg/kg/injection, schedule: Q04DX003 (ip), vehicle: other) was 118 % of control.

Take `Cc1ccc(C)c(NC(=O)CCC(=O)CC(=O)c2ccncc2)c1`: the T/C was 107 % of control under setting [10]; 107 % of control under setting [11]; 105 % of control (dose: 240.0 mg/kg/injection, schedule: Q01DX005 (ip), vehicle: saline with Tween-80).

Turning to `Cc1ccc2[nH]c(C)c(C(=O)c3ccncc3)c2c1`, the T/C runs as follows: under setting [6], 100 % of control; under setting [7], 100 % of control; under setting [8], 107 % of control.

Turning to `NS(=O)(=O)c1ccc(N=NC2C(=O)N(C(=O)CC(=O)Nc3ccc(C(=O)O)cc3)N=C2c2ccccc2)cc1` (stereo not drawn), the T/C is, setting by setting: under setting [12], 97 % of control; (dose: 100.0 mg/kg/injection, schedule: Q01DX005 (ip), vehicle: saline with Tween-80) 92 % of control; (dose: 200.0 mg/kg/injection, schedule: Q01DX005 (ip), vehicle: saline with Tween-80) 90 % of control.

On to `O=c1[nH]c2ccccc2nc1Cl`, for which the T/C was 100 % of control (dose: 25.0 mg/kg/injection, schedule: Q01DX009 (ip), vehicle: saline with Tween-80); 98 % of control (dose: 50.0 mg/kg/injection, schedule: Q01DX009 (ip), vehicle: saline with Tween-80); 97 % of control (dose: 100.0 mg/kg/injection, schedule: Q01DX009 (ip), vehicle: saline with Tween-80).

As for `CC1C2CC3OC(=O)C1C3C2` (stereo not drawn), the T/C by setting is: (dose: 12.5 mg/kg/injection, schedule: Q01DX005 (ip), vehicle: saline with Tween-80) 102 % of control; (dose: 25.0 mg/kg/injection, schedule: Q01DX005 (ip), vehicle: saline with Tween-80) 102 % of control; under setting [12], 99 % of control and 106 % of control.

Consider `CCOC(=O)Oc1ccc[nH]c1=O`, for which the T/C is 100 % of control and 96 % of control under setting [13]; 100 % of control and 109 % of control (dose: 25.0 mg/kg/injection, schedule: Q01DX009 (sc), vehicle: saline with Tween-80); 100 % of control under setting [1]; 108 % of control and 109 % of control (dose: 50.0 mg/kg/injection, schedule: Q01DX009 (sc), vehicle: saline with Tween-80); 108 % of control and 109 % of control under setting [2]; 106 % of control and 115 % of control (dose: 100.0 mg/kg/injection, schedule: Q01DX009 (sc), vehicle: saline with Tween-80). In addition, the T/C by setting is: under setting [3], 111 % of control and 113 % of control; (dose: 200.0 mg/kg/injection, schedule: Q01DX009 (sc), vehicle: saline with Tween-80) 104 % of control and 116 % of control; (dose: 400.0 mg/kg/injection, schedule: Q01DX009 (ip), vehicle: saline) 117 % of control and 124 % of control; (dose: 400.0 mg/kg/injection, schedule: Q01DX009 (sc), vehicle: saline with Tween-80) 101 % of control and 108 % of control; (dose: 600.0 mg/kg/injection, schedule: Q01DX009 (sc), vehicle: saline with Tween-80) 107 % of control and 112 % of control.

On to `NS(=O)(=O)c1ccc(Nc2c3ccccc3nc3ccccc23)cc1`, for which the T/C by setting is: under setting [6], 110 % of control and 86 % of control (2×); (dose: 118.0 mg/kg/injection, schedule: Q04DX003 (ip), vehicle: Klucel (hydroxypropylcellulose) (HPC)) 93 % of control; under setting [7], 118 % of control and 90 % of control; (dose: 236.0 mg/kg/injection, schedule: Q04DX003 (ip), vehicle: Klucel (hydroxypropylcellulose) (HPC)) 99 % of control; under setting [8], 120 % of control and 88 % of control and 95 % of control; (dose: 472.0 mg/kg/injection, schedule: Q04DX003 (ip), vehicle: Klucel (hydroxypropylcellulose) (HPC)) 99 % of control.

On to `c1ccc(-c2cnn3c(-c4ccccc4)cnnc23)cc1`, for which the T/C was 99 % of control under setting [14], 99 % of control under setting [15] and 99 % of control under setting [16].

In the case of `CC[C@@]1(CCC(=O)OC)CCC(=O)N2CC[C@@]3(C(=O)Nc4ccccc43)[C@@H]21`, the T/C reads like this: under setting [14], 100 % of control; under setting [15], 95 % of control; under setting [16], 91 % of control.

On to `CC(=O)/C(=C\c1cccc(Cl)c1)C(=O)CCN(C)C`, for which the T/C is 108 % of control and 111 % of control under setting [10]; 115 % of control under setting [11].

Regarding `COc1ccc2c(c1)SC1=NNC(=O)CN12`, the T/C was 89 % of control (dose: 60.0 mg/kg/injection, schedule: Q01DX005 (ip), vehicle: Klucel (hydroxypropylcellulose) (HPC)); 89 % of control (dose: 120.0 mg/kg/injection, schedule: Q01DX005 (ip), vehicle: Klucel (hydroxypropylcellulose) (HPC)); 91 % of control (dose: 240.0 mg/kg/injection, schedule: Q01DX005 (ip), vehicle: Klucel (hydroxypropylcellulose) (HPC)).

`C[Si](C)(C)N[Si](C)(C)C`: the T/C reads like this: under setting [4], 100 % of control; under setting [5], 102 % of control.

Regarding `O=C1CCC2CCc3ccccc3N12` (stereo not drawn), the T/C was 102 % of control (dose: 100.0 mg/kg/injection, schedule: Q04DX002 (ip), vehicle: other); 96 % of control (dose: 200.0 mg/kg/injection, schedule: Q04DX002 (ip), vehicle: other); 103 % of control (dose: 400.0 mg/kg/injection, schedule: Q04DX002 (ip), vehicle: other).

Consider `CCNC(=S)N=Nc1c(O)[nH]c2ccccc12`, for which the T/C is 90 % of control under setting [9]; 89 % of control under setting [13]; 88 % of control and 89 % of control under setting [1].

As to `CCN(CC)S(=O)(=O)C(=[N+]=[N-])P(=O)(OC)OC`, the T/C by setting is: (dose: 100.0 mg/kg/injection, schedule: Q04DX002 (ip), vehicle: saline) 100 % of control; (dose: 200.0 mg/kg/injection, schedule: Q04DX002 (ip), vehicle: saline) 112 % of control; (dose: 400.0 mg/kg/injection, schedule: Q04DX002 (ip), vehicle: saline) 100 % of control.

As to `Cc1cc(CCO)n[nH]1`, the T/C by setting is: under setting [1], 97 % of control; under setting [2], 100 % of control; under setting [3], 100 % of control.
